Results as given in paper PMC7660103, “Discovery of Novel 3-Cyanopyridines as Survivin Modulators and Apoptosis Inducers” (Molecules, 2020).

Experiments:
[1] = test system: normal cell line WI-38; test: SRB cytotoxicity assay, normal cell line WI-38; assay type: cell-based; conditions: Homo sapiens, WI-38, mean ± SD of three experiments
Experimental: The cytotoxicity of the newly synthesized compounds on the normal cell line WI-38 was also evaluated in order to examine the safety of these compounds.
Cell viability was estimated using the SRB assay. Aliquots of 100 µL cell suspension (5 × 10^3 cells) in 96-well plates were incubated in complete media for 24 h. Cells were treated with a second aliquot of 100 µL media containing various concentrations of the tested compounds (0.01, 0.1, 1, 10, and 100 μM). After 72 h, cells were fixed by replacing media with 15 µL of 10% TCA and then incubated at 4 °C for 1 h. After that, TCA solution was removed, and the cells were washed 5 times with distilled water. Aliquots of 70 µL SRB solution (0.4% w/v) were added and incubated in a dark place at room temperature for 10 min. Plates were washed 3 times with 1% acetic acid and allowed to air dry overnight. Then, 150 µL of TRIS (10 mM) was added to dissolve protein-bound SRB stain. The absorbance was measured at 540 nm using BMG LABTECH®-FLUO star Omega microplate reader (Ortenberg, Germany).

[2] = test system: MDA-MB-231 cells; test: Annexin V-FITC/PI apoptosis assay; assay type: cell-based, human; conditions: for total increase in apoptotic and necrotic cells compared to control: MDA-MB-231, Annexin V-FITC; for Percent of cell death: Apoptosis Late / Percent of cell death: Necrosis / Percent of cell death: Apoptosis Early / Percent of cell death: Total: MDA-MB-231, IC50 concentration, 48 h; for Percent of cell death: Apoptosis Late: control 0.31; for Percent of cell death: Necrosis: control 0.47; for Percent of cell death: Apoptosis Early: control 1.09; for Percent of cell death: Total: control 1.87
Experimental: So, inhibiting survivin should result in increased spontaneous apoptosis in tumor cells. In this study, the apoptotic potential of 5c and 5e was further assessed using Annexin V-FITC assay.
MDA-MB-231 cells were plated in 24-well tissue culture plates. […] After 48 h, cells that floated were collected from the medium. The adherent cells were separated using 0.05% trypsin. After that, a 10% FBS medium was added for inactivating trypsin. Following slow pipetting, the centrifugation of cells was done for 5 min at 1500× g. Then, the supernatant was discarded, and cells were then stained with double annexin V-fluorescein isothiocyanate in addition to propidium iodide (PI) staining following the manufacturer’s directions. Analysis of the cells was investigated using a FACScan flow cytometer.

[3] = test system: Livin; test: Western blotting of Livin in MDA-MB-231 cells; assay type: cell-based, human; conditions: for Livin protein level (Western blot, in words): MDA-MB-231, 1, 5 and 10 µM
Experimental: (§1) The ability of the 2-oxo-3-cyano pyridines 5c and 5e to cause an inhibition of survivin was evaluated by the use of Western blotting analysis in MDA-MB-231cells treated with different concentrations of both compounds (1, 5, and 10 µM). […] Furthermore, to test the effect of these compounds on some other IAP family proteins, the Western plot of Livin, XIAP, and C-IAP1 proteins was performed (Figure 6). […] The Supplementary Material Figures S40 and S41 contain western blotting analysis for 5c and 5e.
(§2) MDA-MB-231 cancer cells were incubated with 5c and 5e at different concentrations (1, 5, and 10 µM) for 48 h. Afterwards, the medium was detached, and the cells were washed using PBS (10 mmol/L, pH 7.4). Then, the cells were incubated on cold lysis buffer (50 mmol/L Tris–HCl, 150 mmol/L NaCl, 1 mmol/L EGTA, 1 mmol/L EDTA, 20 mmol/L NaF, […], 0.5% NP40, 1% Triton X-100, 1 mmol/L PMSF (pH 7.4)) and a freshly added cocktail inhibitor (Inhibitor Cocktail Set III, Calbiochem, La Jolla, CA) above ice for 30 min. Then, MDA-MB-231 cells were collected and centrifuged at 12,000× g for 15 min.
(§3) XIAp, Survivin, Livin, and cIAP1anti-mouse, anti-rabbit secondary antibodies, and GAPDH were purchased from Sigma-Aldrich, whereas the gel was obtained from BioRad. Polyacrylamide gels were moved to a nitrocellulose membrane in order to block in buffer (7% nonfat dry milk/1% Tween 20; in 20 mmol/L TBS (pH 7.6)) for 1 h and incubated for 2 h at room temperature with the suitable primary antibody in blocking buffer or overnight at 4 °C; then, they were incubated with secondary antibody HRP conjugate. Finally, the blots analysis was done using the imaging system.

[4] = test system: XIAP; test: Western blotting of XIAP in MDA-MB-231 cells; assay type: cell-based, human; conditions: for XIAP protein level (Western blot, in words): MDA-MB-231, 1, 5 and 10 µM
Experimental: as §1, §2, §3

[5] = test system: C-IAP1; test: Western blotting of C-IAP1 in MDA-MB-231 cells; assay type: cell-based, human; conditions: for C-IAP1 protein level (Western blot, in words): MDA-MB-231, 1, 5 and 10 µM
Experimental: as §1, §2, §3

`N#Cc1c(-c2ccc(Cl)cc2)cc(-c2ccc(OCc3ccc(F)cc3)cc2)[nH]c1=O` [Compound 5c, 4-(4-Chlorophenyl)-6-(4-((4-fluorobenzyl)oxy)phenyl)-2-oxo-1,2-dihydropyridine-3-carbonitrile] was tested, and the IC50 [1] was 91.29 ± 0.47 µM, the “total increase in apoptotic and necrotic cells compared to control” value [2] was 8.72 fold and the “Percent of cell death: Apoptosis Late” value [2] was 8.67%. The “Percent of cell death: Necrosis” value [2] was 2.58%, the “Percent of cell death: Apoptosis Early” value [2] was 5.07% and the “Percent of cell death: Total” value [2] was 16.32%. The LIVIN band % ([3]; MDA-MB-231, 1µM) was 20.2%, the “LIVIN band Area” value ([3]; MDA-MB-231, 1µM) was 1305 and the “LIVIN band Height” value ([3]; MDA-MB-231, 1µM) was 134. The “LIVIN band Width” value ([3]; MDA-MB-231, 1µM) was 22, the LIVIN band % ([3]; MDA-MB-231, 5µM) was 13.4% and the “LIVIN band Area” value ([3]; MDA-MB-231, 5µM) was 793. For the same molecule, the “LIVIN band Height” value ([3]; MDA-MB-231, 5µM) was 84, the “LIVIN band Width” value ([3]; MDA-MB-231, 5µM) was 17 and the LIVIN band % ([3]; MDA-MB-231, 10µM) was 9.1%. The “LIVIN band Area” value ([3]; MDA-MB-231, 10µM) was 514, the “LIVIN band Height” value ([3]; MDA-MB-231, 10µM) was 66 and the “LIVIN band Width” value ([3]; MDA-MB-231, 10µM) was 17. The “Livin protein level (Western blot, in words)” value [3] was “decreased the levels of these proteins”, the XIAP band % ([4]; MDA-MB-231, 1µM) was 16.3% and the “XIAP band Area” value ([4]; MDA-MB-231, 1µM) was 970. The “XIAP band Height” value ([4]; MDA-MB-231, 1µM) was 99, the “XIAP band Width” value ([4]; MDA-MB-231, 1µM) was 22 and the XIAP band % ([4]; MDA-MB-231, 5µM) was 15.1%. The “XIAP band Area” value ([4]; MDA-MB-231, 5µM) was 921, the “XIAP band Height” value ([4]; MDA-MB-231, 5µM) was 88 and the “XIAP band Width” value ([4]; MDA-MB-231, 5µM) was 19. The XIAP band % ([4]; MDA-MB-231, 10µM) was 14.2%, the “XIAP band Area” value ([4]; MDA-MB-231, 10µM) was 853 and the “XIAP band Height” value ([4]; MDA-MB-231, 10µM) was 82. For the same molecule, the “XIAP band Width” value ([4]; MDA-MB-231, 10µM) was 19, the “XIAP protein level (Western blot, in words)” value [4] was “decreased the levels of these proteins” and the CIAP1 band % ([5]; MDA-MB-231, 1µM) was 39.7%. For the same molecule, the “CIAP1 band Area” value ([5]; MDA-MB-231, 1µM) was 2565, the “CIAP1 band Height” value ([5]; MDA-MB-231, 1µM) was 192 and the “CIAP1 band Width” value ([5]; MDA-MB-231, 1µM) was 24. For the same molecule, the CIAP1 band % ([5]; MDA-MB-231, 5µM) was 34.1%, the “CIAP1 band Area” value ([5]; MDA-MB-231, 5µM) was 1941 and the “CIAP1 band Height” value ([5]; MDA-MB-231, 5µM) was 187. The “CIAP1 band Width” value ([5]; MDA-MB-231, 5µM) was 22, the CIAP1 band % ([5]; MDA-MB-231, 10µM) was 31.9% and the “CIAP1 band Area” value ([5]; MDA-MB-231, 10µM) was 1884. The “CIAP1 band Height” value ([5]; MDA-MB-231, 10µM) was 186, the “CIAP1 band Width” value ([5]; MDA-MB-231, 10µM) was 18 and the “C-IAP1 protein level (Western blot, in words)” value [5] was “decreased the levels of these proteins”.
`COc1ccc(-c2cc(-c3ccc(OCc4ccc(F)cc4)cc3)[nH]c(=O)c2C#N)cc1` [Compound 5e, 6-(4-((4-Fluorobenzyl)oxy)phenyl)-4-(4-methoxyphenyl)-2-oxo-1,2-dihydropyridine-3-carbonitrile] was tested, and the IC50 [1] was 102.6 ± 0.81 µM, the “total increase in apoptotic and necrotic cells compared to control” value [2] was 10.41 fold and the “Percent of cell death: Apoptosis Late” value [2] was 10.91%. For the same molecule, the “Percent of cell death: Necrosis” value [2] was 2.38%, the “Percent of cell death: Apoptosis Early” value [2] was 6.18% and the “Percent of cell death: Total” value [2] was 19.47%. For the same molecule, the LIVIN band % ([3]; MDA-MB-231, 1µM) was 25.7%, the “LIVIN band Area” value ([3]; MDA-MB-231, 1µM) was 2085 and the “LIVIN band Height” value ([3]; MDA-MB-231, 1µM) was 136. For the same molecule, the “LIVIN band Width” value ([3]; MDA-MB-231, 1µM) was 33, the LIVIN band % ([3]; MDA-MB-231, 5µM) was 16.6% and the “LIVIN band Area” value ([3]; MDA-MB-231, 5µM) was 907. For the same molecule, the “LIVIN band Height” value ([3]; MDA-MB-231, 5µM) was 68, the “LIVIN band Width” value ([3]; MDA-MB-231, 5µM) was 27 and the LIVIN band % ([3]; MDA-MB-231, 10µM) was 9.8%. The “LIVIN band Area” value ([3]; MDA-MB-231, 10µM) was 330, the “LIVIN band Height” value ([3]; MDA-MB-231, 10µM) was 44 and the “LIVIN band Width” value ([3]; MDA-MB-231, 10µM) was 14. The “Livin protein level (Western blot, in words)” value [3] was “decreased the levels of these proteins”, the XIAP band % ([4]; MDA-MB-231, 1µM) was 15.4% and the “XIAP band Area” value ([4]; MDA-MB-231, 1µM) was 841. For the same molecule, the “XIAP band Height” value ([4]; MDA-MB-231, 1µM) was 80, the “XIAP band Width” value ([4]; MDA-MB-231, 1µM) was 22 and the XIAP band % ([4]; MDA-MB-231, 5µM) was 8.6%. The “XIAP band Area” value ([4]; MDA-MB-231, 5µM) was 287, the “XIAP band Height” value ([4]; MDA-MB-231, 5µM) was 41 and the “XIAP band Width” value ([4]; MDA-MB-231, 5µM) was 17. The XIAP band % ([4]; MDA-MB-231, 10µM) was 4.7%, the “XIAP band Area” value ([4]; MDA-MB-231, 10µM) was 260 and the “XIAP band Height” value ([4]; MDA-MB-231, 10µM) was 28. The “XIAP band Width” value ([4]; MDA-MB-231, 10µM) was 13, the “XIAP protein level (Western blot, in words)” value [4] was “decreased the levels of these proteins” and the CIAP1 band % ([5]; MDA-MB-231, 1µM) was 18.2%. For the same molecule, the “CIAP1 band Area” value ([5]; MDA-MB-231, 1µM) was 987, the “CIAP1 band Height” value ([5]; MDA-MB-231, 1µM) was 98 and the “CIAP1 band Width” value ([5]; MDA-MB-231, 1µM) was 24. For the same molecule, the CIAP1 band % ([5]; MDA-MB-231, 5µM) was 12.6%, the “CIAP1 band Area” value ([5]; MDA-MB-231, 5µM) was 766 and the “CIAP1 band Height” value ([5]; MDA-MB-231, 5µM) was 86. For the same molecule, the “CIAP1 band Width” value ([5]; MDA-MB-231, 5µM) was 23, the CIAP1 band % ([5]; MDA-MB-231, 10µM) was 10.2% and the “CIAP1 band Area” value ([5]; MDA-MB-231, 10µM) was 570. The “CIAP1 band Height” value ([5]; MDA-MB-231, 10µM) was 79, the “CIAP1 band Width” value ([5]; MDA-MB-231, 10µM) was 22 and the “C-IAP1 protein level (Western blot, in words)” value [5] was “decreased the levels of these proteins”.
